In patent US8124793B2, “Derivatives of ethylene methanedisulfonate as cancer chemotherapeutic agents” (priority 2007, dated 2012):

Tests used:
Format in all cases: cell-based
MDA-MB-435 = test: NCI screen, growth of human tumor cells: Breast Cancer MDA-MB-435
Summary of the method: (§1)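 The NCI screen tests each compound on human cancer cell lines and reports percent growth. Concentrations are given in molar units; the number of data points per compound is sixty at minimum.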

K562 = test: NCI screen, growth of human tumor cells: Leukemia K562
Summary of the method: as §1

KD488 = test: NCI screen, growth of human tumor cells: Lymphoma KD488
M14 = test: NCI screen, growth of human tumor cells: Melanoma M14; settings: M14, 10^−4 molar
Summary of the method: as §1

AS283 = test: NCI screen, growth of human tumor cells: Lymphoma AS283
ACHN = test: NCI screen, growth of human tumor cells: Renal Cancer ACHN; settings: ACHN
Summary of the method: as §1

MDA-MB-231/ATCC = test: NCI screen, growth of human tumor cells: Breast Cancer MDA-MB-231/ATCC; settings: for percent of growth of human tumor cells: MDA-MB-231/ATCC (Breast Cancer); for % Growth: MDA-MB-231 (ATCC)
Summary of the method: as §1

human cancer cells = test: NCI screen summary over the cancers tested (negative growth of human cancer cells); settings: for Percentage of cancers showing negative growth cancers tested: cancers with negative growth / cancers tested
Method: (§2) In the NCI screening process, each compound was tested and described by a minimum of 60 data points. The test data include, but are not limited to the type of cancer, the molar concentration used in the screen, and the percent growth of the cancer. In some cases, NMR and elemental analysis were used for structural assignment.
The derivatives in the tables are grouped using the same category as in the tables 1-6.

RL = test: NCI screen, growth of human tumor cells: Lymphoma RL
MOLT-4 = test: NCI screen, growth of human tumor cells: Leukemia MOLT-4; settings: for percent of growth of human tumor cells: MOLT-4 (Leukemia), 10^−4 molar
Summary of the method: as §1

HCC-2998 = test: NCI screen, growth of human tumor cells: HCC-2998 (listed under Non-Small Cell Lung)
Summary of the method: as §1

U-251 = test: NCI screen, growth of human tumor cells: CNS Cancer U-251
Summary of the method: as §1

786-0 = test: NCI screen, growth of human tumor cells: Renal Cancer 786-0
Summary of the method: as §1

SU-DAL-7 = test: NCI screen, growth of human tumor cells: Lymphoma SU-DAL-7
SK-MEL-28 = test: NCI screen, growth of human tumor cells: Melanoma SK-MEL-28
Summary of the method: as §1

PC-3 = test: NCI screen, growth of human tumor cells: Prostate Cancer PC-3
Summary of the method: as §1

PA682 = test: NCI screen, growth of human tumor cells: Lymphoma PA682
HL-60 (TB) = test: NCI screen, growth of human tumor cells: Leukemia HL-60 (TB); settings: for % Growth: HL-60(TB)
Method: as §2

SK-OV-3 = test: NCI screen, growth of human tumor cells: Ovarian Cancer SK-OV-3; settings: SK-OV-3, 10^−4 molar
Summary of the method: as §1

MDA-N = test: NCI screen, growth of human tumor cells: Breast Cancer MDA-N; settings: 10^−4 molar
Summary of the method: as §1

UACC-257 = test: NCI screen, growth of human tumor cells: Melanoma UACC-257; settings: UACC-257, 10^−4 molar
Summary of the method: as §1

HS 578T = test: NCI screen, growth of human tumor cells: Breast Cancer HS 578T; settings: HS 578T (Breast Cancer), 10^−4 molar
Summary of the method: as §1

NCI-H460 = test: NCI screen, growth of human tumor cells: Non-Small Cell Lung NCI-H460
Summary of the method: as §1

SF-268 = test: NCI screen, growth of human tumor cells: CNS Cancer SF-268
Summary of the method: as §1

SW620 = test: NCI screen, growth of human tumor cells: Colon Cancer SW620
Summary of the method: as §1

T-47D = test: NCI screen, growth of human tumor cells: Breast Cancer T-47D; settings: 10^−4 molar; for percent of growth of human tumor cells: T-47D (Breast Cancer)
Method: as §2

RXF-393 = test: NCI screen, growth of human tumor cells: Renal Cancer RXF-393
Summary of the method: as §1

Cc1ccc2ccccc2c1CC1S(=O)(=O)OCCOS1(=O)=O [NSC 679043, ethylene 2-methyl-1-naphyl-1,1-ethanedisulfonate]
% Growth (MDA-MB-435; MDA-MB-435, 10^−4 molar): −90%
% Growth (MDA-MB-435; MDA-MB-435, 10^−5 molar): 47%
% Growth (K562; K562, 10^−4 molar): −42%
% Growth (K562; K562, 10^−5 molar): 48%
% Growth (KD488; KD488, 10^−4 molar): −45%
% Growth (KD488; KD488, 10^−5 molar): 30%
% Growth (KD488; KD488, 10^−6 molar): 62%
% Growth (KD488; KD488, 10^−7 molar): 54%
% Growth (M14): −78%
% Growth (AS283; AS283, 10^−4 molar): −34%
% Growth (AS283; AS283, 10^−5 molar): 37%
% Growth (ACHN; 10^−4 molar): −90%
percent of growth of human tumor cells (MDA-MB-231/ATCC; 10^−4 molar): −12%
percentage of cancers that had −100% growth (human cancer cells; 10^−4 M conc.): 8%
Percentage of cancers showing negative growth cancers tested (human cancer cells; 10^−4 M conc.): 100%
Percentage of cancers showing negative growth cancers tested (human cancer cells; 10^−5 M conc.): 9%
% Growth (RL; 10^−4 molar): −45%
% Growth (RL; 10^−5 molar): 33%
% Growth (MOLT-4; MOLT-4, 10^−4 molar): −46%
% Growth (MOLT-4; MOLT-4, 10^−5 molar): 36%
% Growth (HCC-2998; HCC-2998, 10^−4 molar): −88%
% Growth (HCC-2998; HCC-2998, 10^−5 molar): 22%
% Growth (U-251; U251, 10^−4 molar): −96%
% Growth (786-0; 786-0, 10^−4 molar): −97%
% Growth (SU-DAL-7; SU-DAL-7, 10^−4 molar): −44%
% Growth (SU-DAL-7; SU-DAL-7, 10^−5 molar): 14%
% Growth (SK-MEL-28; SK-MEL-28, 10^−4 molar): −78%
% Growth (PC-3; PC-3, 10^−4 molar): −91%
% Growth (PC-3; PC-3, 10^−5 molar): 57%
% Growth (PA682; PA682, 10^−4 molar): −33%
% Growth (PA682; PA682, 10^−5 molar): 45%
% Growth (HL-60 (TB); 10^−4 molar): −49%
% Growth (HL-60 (TB); 10^−5 molar): −33%

CC1=C(CC2S(=O)(=O)OCCOS2(=O)=O)C(=O)c2ccccc2C1=O [NSC 693874, ethylene (3-methyl-1,4-naphtho-2-quinoyl)-1,1-ethanedisulfonate]
% Growth (MDA-MB-435; MDA-MB-435, 10^−4 molar): −92%
% Growth (MDA-MB-435; MDA-MB-435, 10^−5 molar): 54%
% Growth (SK-OV-3): −75%
% Growth (ACHN; 10^−4 molar): −100%
% Growth (ACHN; 10^−5 molar): 50%
percent of growth of human tumor cells (MDA-MB-231/ATCC; 10^−4 molar): −22%
Percentage of cancers showing negative growth cancers tested (human cancer cells; 10^−4 M conc.): 98%
Percentage of cancers showing negative growth cancers tested (human cancer cells; 10^−5 M conc.): 12%
percent of growth of human tumor cells (MOLT-4): −51%
% Growth (HCC-2998; HCC-2998, 10^−4 molar): −100%
% Growth (HCC-2998; HCC-2998, 10^−5 molar): 50%
% Growth (U-251; U251, 10^−4 molar): −25%
% Growth (U-251; U251, 10^−5 molar): 57%
percent of growth of human tumor cells (786-0; 786-0 (Renal Cancer), 10^−4 molar): −16%
% Growth (SK-MEL-28; SK-MEL-28, 10^−4 molar): −83%
percent of growth of human tumor cells (MDA-N): −59%
% Growth (PC-3; PC-3, 10^−4 molar): −80%
% Growth (UACC-257): −100%
percent of growth of human tumor cells (HS 578T): −21%
% Growth (NCI-H460; NCI-H460, 10^−4 molar): −73%
% Growth (NCI-H460; NCI-H460, 10^−5 molar): 59%
% Growth (SF-268; SF-268, 10^−4 molar): 10%
% Growth (SF-268; SF-268, 10^−5 molar): 49%

CC(=O)C1(CC2=C(C)C(=O)c3ccccc3C2=O)S(=O)(=O)OCCOS1(=O)=O [NSC 701690]
% Growth (SW620; SW620, 10^−4 molar): −100%
% Growth (SW620; SW620, 10^−5 molar): 23%
% Growth (SW620; SW620, 10^−6 molar): 54%
% Growth (MDA-MB-435; MDA-MB-435, 10^−4 molar): −95%
percent of growth of human tumor cells (T-47D): −54%
% Growth (T-47D; T-47D): −54%
% Growth (K562; K562, 10^−4 molar): −66%
% Growth (M14): −100%
% Growth (ACHN; 10^−4 molar): −77%
% Growth (MDA-MB-231/ATCC; 10^−4 molar): −41%
% Growth (MDA-MB-231/ATCC; 10^−5 molar): 39%
% Growth (MDA-MB-231/ATCC; 10^−6 molar): 56%
% Growth (MDA-MB-231/ATCC; 10^−7 molar): 58%
% Growth (MDA-MB-231/ATCC; 10^−8 molar): 45%
Percentage of cancers showing negative growth cancers tested (human cancer cells; 10^−4 M conc.): 100%
Percentage of cancers showing negative growth cancers tested (human cancer cells; 10^−5 M conc.): 5%
Percentage of cancers showing negative growth cancers tested (human cancer cells; 10^−6 M conc.): 14%
% Growth (HCC-2998; HCC-2998, 10^−4 molar): −100%
% Growth (U-251; U251, 10^−4 molar): −100%
% Growth (U-251; U251, 10^−5 molar): 42%
% Growth (U-251; U251, 10^−6 molar): 53%
% Growth (U-251; U251, 10^−7 molar): 46%
% Growth (U-251; U251, 10^−8 molar): 62%
% Growth (786-0; 786-0, 10^−4 molar): −100%
% Growth (786-0; 786-0, 10^−5 molar): 36%
% Growth (SK-MEL-28; SK-MEL-28, 10^−4 molar): −100%
% Growth (SK-MEL-28; SK-MEL-28, 10^−5 molar): 58%
% Growth (PC-3; PC-3, 10^−4 molar): −38%
% Growth (PC-3; PC-3, 10^−5 molar): 52%
% Growth (PC-3; PC-3, 10^−6 molar): 59%
% Growth (PC-3; PC-3, 10^−7 molar): 28%
% Growth (PC-3; PC-3, 10^−8 molar): 28%
% Growth (UACC-257): −83%
% Growth (RXF-393; RXF-393, 10^−4 molar): −69%
% Growth (NCI-H460; NCI-H460, 10^−4 molar): −100%
% Growth (NCI-H460; NCI-H460, 10^−5 molar): 42%
% Growth (SF-268; SF-268, 10^−4 molar): −100%
% Growth (SF-268; SF-268, 10^−5 molar): 40%
% Growth (SF-268; SF-268, 10^−6 molar): 65%

CC1(C)OCC(COC(=O)C(=O)C2(Cc3ccc4c(c3)C(=O)c3ccccc3C4=O)S(=O)(=O)OCCOS2(=O)=O)O1 (stereo not drawn) [NSC 737276]
% Growth (SW620; SW620, 10^−4 molar): −74%
percent of growth of human tumor cells (T-47D): −39%
% Growth (SK-OV-3): −67%
percent of growth of human tumor cells (K562; K562 (Leukemia), 10^−4 molar): 29%
% Growth (ACHN; 10^−4 molar): −82%
percent of growth of human tumor cells (MDA-MB-231/ATCC; 10^−4 molar): −9%
Percentage of cancers showing negative growth cancers tested (human cancer cells; 10^−4 M conc.): 10^−4 M conc. = 49/55 = 89%
percent of growth of human tumor cells (MOLT-4): −26%
% Growth (HCC-2998; HCC-2998, 10^−4 molar): −96%
percent of growth of human tumor cells (U-251; U-251 (CNS Cancer), 10^−4 molar): −53%
% Growth (786-0; 786-0, 10^−4 molar): −74%
percent of growth of human tumor cells (SK-MEL-28; SK-MEL-28 (Melanoma), 10^−4 molar): −52%
% Growth (PC-3; PC-3, 10^−4 molar): −68%
% Growth (UACC-257): −76%
percent of growth of human tumor cells (HS 578T): 17%
percent of growth of human tumor cells (RXF-393; RXF-393 (Renal Cancer), 10^−4 molar): −54%
percent of growth of human tumor cells (NCI-H460; NCI-H460 (Non-Small Cell Lung), 10^−4 molar): −59%
percent of growth of human tumor cells (HL-60 (TB); HL-60 (TB) (Leukemia), 10^−4 molar): −3%
percent of growth of human tumor cells (SF-268; SF-268 (CNS Cancer), 10^−4 molar): −40%
